Measured values published in patent US20240245654A1, “ADJUNCTIVE D-CYCLOSERINE AUGMENTATION OF TRANSCRANIAL MAGNETIC STIMULATION (TMS) THERAPY FOR MAJOR DEPRESSIVE DISORDER” (MCGRX CORP., priority 2021, published 2024).
Entries after “also recorded” stand apart in the source; their conditions may differ.

How the values were obtained:
[1] = system: motor cortex (iTBS synaptic plasticity); test: Motor cortex iTBS, MEP and stimulus response curve, placebo-controlled crossover study in Major Depressive Disorder (NCT03937596); type: in vivo, human
[2] = system: TMS-associated plasticity; conditions: low dose; cited from earlier work
[3] = system: treatment resistant major depressive disorder (MDD); test: 4-week double-blind placebo-controlled RCT of iTBS+DCS in treatment resistant MDD: depression, CGI, anxiety, wellbeing outcomes; type: in vivo, human; conditions: for rate of clinical remission (MADRS≤10): iTBS+placebo 4.2%
Method: Methods: In this preregistered (NCT03937596) single site 4-week randomized double-blind placebo-controlled trial, fifty participants with treatment resistant MDD were randomized 1:1 to ITBS+Placebo or iTBS+D-Cycloserine (100 mg). Participants were asked to take the adjunct or placebo at least 60 minutes prior to daily iTBS treatments for the first two weeks, and iTBS continued without an adjunct for weeks three and four. We utilized a MagPro X100 stimulator (MagVenture, Denmark) and a COOL-B70 coil. Targeting of the left DLPFC involved surface anatomy and the Beam F3 method^30. Although anatomical and functional neuroimaging was collected as part of the study protocol, targeting utilizing surface anatomy was chosen to increase generalizability to clinical settings where neuroimaging derived targets are not feasible. This target was registered to either the participant's anatomical MRI or to a template brain for those who could not complete neuroimaging (Visor2, ANT Neuro, the Netherlands). Resting motor threshold (rMT) was determined using electromyographic (EMG) electrodes placed over the first dorsal interosseous muscle, with threshold determined as the stimulus intensity required to elicit a minimum of 5 out of 10 EMG responses of >50 uV.
Patients all received active-iTBS, consisting of a total of 600 pulses per session delivered in twenty trains of triplets at 50 Hz repeated at 5 Hz (2 s on 8 s off) at 80% rMT. Participants received daily treatments Monday through Friday for a total of 20 treatments.
The primary outcome was change in depressive symptoms as measured by the Montgomery Asberg Depression Rating Scale (MADRS) at the conclusion of treatment. Secondary outcomes included clinical response (≥50% improvement in MADRS), clinical remission (MADRS≤10), and clinical global impression (CGI).

[4] = system: MDD-related cognitive impairment; test: RCT of iTBS+DCS in MDD: cognition (PDQ, THINC-it N-Back); type: in vivo, human; conditions: iTBS+DCS 100 mg vs iTBS+Placebo; listed as DCS
Method: The efficacy of 100 mg DCS as an adjunctive strategy to iTBS to reduce MDD-related cognitive impairment and/or improve cognition in MDD was be tested in the randomized controlled trial described in the above Example.
Participants completed the Cognitive Failures Questionnaire (CFQ31) and the Perceived Deficits Questionnaire (PDQ) as well as the THINC-it computerized neurocognitive battery at baseline and after treatment.

[5] = system: tDCS plasticity; conditions: compared with tDCS alone; cited from earlier work
[6] = system: neurite density at the iTBS target site; test: RCT of iTBS+DCS in MDD: NODDI diffusion MRI at iTBS target site; type: in vivo, human; conditions: iTBS+DCS treated participants; not in iTBS+Placebo; listed as DCS
From the text: Neurite Density and Dispersion Orientation Index (NODDI)^32 is an MRI tool that provides a proxy measure of neurite morphology and arborization that has been validated against histology in model species^33,34. While more commonly applied to white matter, NODDI has discriminating power in cortical gray matter in both health and disease^35-37. Neurite density metrics reflect the volume within neurites, whereas orientation dispersion metrics capture the tortuosity or complexity of neural processes, both of which are affected in MDD.
In the randomized placebo-controlled trial discussed in the Example above, diffusion magnetic resonance data to quantify Neurite Density and Dispersion Orientation Index (NODDI)^32 were acquired using a 3T General Electric Discovery MR750 scanner at the Seaman Family MR Research Center. This method provides a proxy measure of histopathological features in brain white and gray matter to describe neurite morphology and arborization.

[7] = system: suicidal ideation and suicide risk in MDD; test: RCT of iTBS+DCS in MDD: suicidal ideation and death-implicit association test; type: in vivo, human; conditions: iTBS+DCS vs iTBS+Placebo, listed as DCS
From the text: Participants also completed a computerized neuropsychological test called the death-implicit association test that is associated with suicide attempts, both retrospectively and prospectively.

[8] = system: motor cortex (MEP facilitation after iTBS); conditions: healthy participants, described elsewhere; cited from earlier work
[9] = system: left primary motor cortex (iTBS synaptic plasticity); test: Repeated spaced iTBS of motor cortex, MEP and stimulus response curve, placebo-controlled crossover trial in healthy individuals (NCT05081986); type: in vivo, human; conditions: n=20 healthy, vs placebo
Method: Methods: This experiment was a pre-registered randomized, double-blind, placebo-controlled crossover trial (NCT05081986). Twenty healthy individuals were randomly assigned to one of two experimental arms of the crossover study: a) Placebo-D-cycloserine and b) D-cycloserine-placebo. In the placebo arm, participants received one oral dose of 100 mg microcrystalline cellulose one hour prior to iTBS. In the D-cycloserine 100 mg arm, participants received one oral dose of 100 mg D-cycloserine one hour before ITBS. Participants attended the laboratory on two occasions to complete both arms of the crossover design. Time of arrival was standardized across visits, and visits were separated by at least seven days.
All TMS pulses were delivered using a neuro-navigated MagPro stimulator (X100 system, MagVenture, Denmark) with a biphasic Cool-B70 figure-eight coil. […] The peak-to-peak amplitude of MEPs were recorded from two surface electromyographic (EMG) electrodes placed on the right first dorsal interosseous muscle (FDI), with the ground electrode placed on the right styloid process. […]
TMS was delivered to the left primary motor cortex to identify the area that, when stimulated, elicited the largest peak-to-peak FDI MEP amplitude (the hotspot). […] The resting motor threshold (RMT) was determined as the lowest stimulator output, which elicited peak-to-peak MEP amplitudes≥0.05 mV in 5/10 trials. […]

N[C@@H]1CONC1=O [D-cycloserine]
relationship between ΔAUC 90 min and ΔAUC NextDay of the SRC ([1]; D-cycloserine groups, placebo groups weak negative relationship): positively correlated; also recorded: positive relationship
MEP time course following iTBS ([1]; MDD participants n=12, 100 mg, vs placebo arm): did not impact
change in stimulus response curve the day following iTBS ([1]; MDD participants, 100 mg, compared with healthy-placebo and MDD-placebo): normalized
short-term facilitation with high-frequency rTMS [2]: increases short-term facilitation
OR of clinical response ([3]; 2 weeks, iTBS+DCS vs iTBS+placebo, 95% CI: 1.41-21.03): 5.45
rate of clinical remission (MADRS≤10) ([3]; 2 weeks): 17.4%
rate of clinical response (≥50% improvement in MADRS) ([3]; 2 weeks, iTBS+placebo 16.7%): 52.2%
OR of clinical remission ([3]; 4 weeks, iTBS+DCS vs iTBS+placebo, 95% CI: 1.68-129.52): 14.78
OR of clinical response ([3]; 4 weeks, iTBS+DCS vs iTBS+placebo, 95% CI: 1.91-24.77): 6.88
rate of clinical remission (MADRS≤10) ([3]; 4 weeks): 39.1%
rate of clinical response (≥50% improvement in MADRS) ([3]; 4 weeks, iTBS+placebo 29.2%): 73.9%
change in depressive symptoms (MADRS scores) ([3]; iTBS+DCS 100 mg vs iTBS+Placebo, mITT, 4 weeks, listed as DCS): significant improvement in depressive symptoms; also recorded: greater reductions in depressive symptoms
MADRS mean difference, per treatment analyses ([3]; iTBS+DCS vs iTBS+Placebo, 2 weeks, 95% CI: 0.43-7.51): 3.97
MADRS mean difference, per treatment analyses ([3]; iTBS+DCS vs iTBS+Placebo, 4 weeks, 95% CI: 2.66-11.52): 7.09
Hedge's g (MADRS change) ([3]; iTBS+DCS vs iTBS+Placebo, 95% CI: 0.34-1.62): 0.99
CGI-Improvement scores ([3]; iTBS+DCS vs iTBS+Placebo, at 2 weeks and 4 weeks, listed as DCS): greater improvements on the clinical global impression scale; also recorded: greater improvement
mean difference on the MADRS ([3]; iTBS+DCS vs iTBS+Placebo, mITT, baseline to 4 weeks, 95% CI: 2.43-9.88, p=0.001): 6.15
CGI-severity scale ([3]; iTBS+DCS vs iTBS+Placebo, p=0.0014, listed as DCS): greater improvements in clinical global impression severity scores
visual analog scale for overall wellbeing ([3]; iTBS+DCS vs iTBS+Placebo, p=0.018, listed as DCS): greater improvements in overall wellbeing; also recorded: greater improvement
self-reported anxiety symptoms (GAD-7) ([3]; iTBS+DCS vs iTBS+Placebo, p=0.035, listed as DCS): greater improvements in anxiety; also recorded: greater improvement
objective cognitive function, N-Back task of working memory [4]: significantly greater improvements; also recorded: significant improvements
subjective cognitive function (Perceived Deficits Questionnaire) [4]: significantly greater improvements; also recorded: significant improvements
duration of sustained plasticity with transcranial direct current stimulation [5]: more than 12 hours
neurite density at the target site (NODDI) [6]: increased neurite density; also recorded: Neurite density increases
suicidal ideation [7]: rapid resolution of suicidal ideation; also recorded: greater reductions in suicidal ideation
death-implicit association test performance ([7]; persisted when controlling for depressive symptom improvement): showed improvement; also recorded: greater reductions in scores
facilitation of MEPs after iTBS [8]: blunted facilitation of MEPs
facilitation of MEP peak to peak amplitude after repeated spaced iTBS ([9]; 100 mg oral one hour before iTBS, two iTBS separated by an hour): not impacted
stimulus response curve change after iTBS ([9]; adjunctive 100 mg): significant and sustained facilitation
